Test results: article PMC12705620 (Frontiers in Pharmacology, 2025)
Values joined by “and” are separate entries in the source; they are usually repeats but may differ in a detail not shown here. Equal entries are not always repeated. Where two headings read alike, the source gives them in different places.

What was measured:
[1] = test system: Staphylococcus aureus JAR060131; assay type: cell-based
Procedure: (§1) Bactericidal activity was assessed as previously described ([Breij et al., 2018]). Briefly, mid-logarithmic phase bacterial cultures were diluted in RPMI to 1 × 10^7 CFU/mL. For fungicidal assays, fungal cultures were prepared in RPMI supplemented with 1% glucose (Merck) and diluted to 2–5 × 10^5 CFU/mL. For each condition, 10 µL of the suspension was added to 90 µL of peptide-containing RPMI or RPMI supplemented with 50% (v/v) pooled human plasma (hereafter referred to as 50% plasma; final bacterial concentration 1 × 10^6 CFU/mL, final fungal concentration 2–5 × 10^4 CFU/mL. Human plasma from four healthy volunteers (Sanquin, Netherlands) was pooled, and stored at −20 °C until use. Peptides were tested similarly for fungicidal activity, after 18 h of incubation at 37 °C with shaking (120 rpm) under humidified conditions, bacterial and fungal survival was determined by plating 10 µL aliquots onto BA plates. Assays were performed in duplicate in round-bottom polypropylene microtiter plates (Costar) and repeated independently three times. Untreated controls included bacteria exposed to RPMI alone or RPMI with 50% plasma. Bactericidal and fungicidal activity was expressed as the lethal concentration 99.9% (LC99.9), defined as the lowest peptide concentration causing ≥99.9% reduction in numbers of CFU compared to the initial inoculum.

[2] = test system: S. aureus LUH14616 (MRSA); test: Ex vivo human skin wound infection model; set-up: species or system Staphylococcus aureus; conditions: 0.5% (v/v) in 70% ethanol, positive control, 4 h, p < 0.001
Source text: Human skin from 3 donors was obtained via the Residual Tissue Biobank of the Red Cross Hospital (Beverwijk, Netherlands). The use of these coded, post-operative residual tissue samples was approved by patients through the informed opt-out-plus protocol of the Red Cross Hospital Skin ([Code-of-Conduct-for-Health-Research, 2022]) and processed for an ex vivo wound infection model as described ([Dijksteel et al., 2020]). The Wounded skin grafts were sectioned into approximately 1 cm^2 samples using a sterile scalpel and were decontaminated by immersion in 70% ethanol for 30 min, followed by three PBS washes. Samples were placed dermis-down and wound-side-up on stainless steel grids with central indentations, positioned in 12-well plates, and cultured at the air–liquid interface in DMEM at 37 °C and 5% CO2. To confine reagents to the wound area, a resin barrier (OpalDam; Ultradent) was applied to the wounded area and polymerized using a hand-held UV light (Valo X) for 10 s. The wounds were then topically infected with 10 µL of S. aureus LUH14616 suspension of 1 × 10^7 CFU/mL (final dose: 1 × 10^5 CFU/graft) in PBS for 1 h, followed by topical application of 10 µL of peptide solution for 4 h. Chlorhexidine (0.5% (v/v) in 70% ethanol; Entick B.V.) and PBS were used as positive and negative controls, respectively. After treatment, tissue samples were transferred to polypropylene vials containing 1 mL PBS supplemented with 0.025% (v/v) SPS and a 7 mm stainless steel bead. Homogenization was performed using a MagnaLyser System (Roche) with three 30-s cycles at 7,000 rpm, with 30 s of cooling on ice between cycles. Homogenates were 10-fold serially diluted in PBS, and 100 µL aliquots were plated on BA plates. CFUs were enumerated after overnight incubation at 37 °C.

[3] = test system: human erythrocytes; test: Hemolytic activity; assay type: cell-based; conditions: 45 min
Procedure: Whole blood was collected from healthy volunteers after obtaining informed consent, using Vacuette EDTA tubes (Greiner Bio-One). […] For hemolytic assessment, 180 μL of the prepared erythrocyte suspension was mixed with 20 μL of serially diluted peptide solutions (ranging from 60 to 0.03 μM in PBS).

[4] = test system: TNF-α production by unstimulated dTHP-1 macrophages; test: TNFα induction by peptides alone in macrophages; assay type: cell-based, human; conditions: 2 µM peptide, 4 h, no endotoxin stimulation, versus unstimulated cells
Procedure: The endotoxin-neutralizing capacity of the peptides was assessed by measuring tumor necrosis factor-alpha (TNF-α) production by dTHP-1 macrophages. dTHP-1 macrophages were stimulated with either lipopolysaccharide (LPS; E. coli O111:B4; 5 ng/mL, Sigma-Aldrich) or UV-inactivated S. aureus JAR060131 (MOI 2; as described in Section 5.2), in the presence or absence of one or 2 µM peptides. Cells were cultured in serum-free RPMI and incubated for 4 h at 37 °C with 5% CO2. Positive controls consisted of cells stimulated with LPS or UV-S. aureus without peptide treatment (no treatment, NT), and unstimulated cells served as negative controls. After stimulation, cell supernatants were collected, and cytokine levels of TNF-α were quantified using human ELISA kits (R&D Systems, USA) according to the manufacturer’s instructions. Each condition was tested in triplicate.

[5] = test system: S. aureus RN4220 (mCherry) in dTHP-1 macrophages; test: Intracellular bacterial killing in macrophages; assay type: cell-based, Staphylococcus aureus; conditions: 24 h pre-treatment at 1 µM and 2 µM, MOI 2, CFU after lysis, versus no treatment
Procedure: Human monocytes (THP-1; TIB-202; ATCC) were cultured in RPMI 1,640 medium (Gibco) supplemented with 10% FBS. For differentiation into macrophage-like cells (dTHP-1), THP-1 monocytes were seeded in 96-well plates at 3 × 10^4 cells/well (100 µL) in RPMI supplemented with 50 ng/mL phorbol 12-myristate 13-acetate (PMA; Sigma-Aldrich), and incubated for 48 h. The protocol for intracellular killing was adapted from Tang et al. ([Tang et al., 2015]) with modifications. After differentiation, dTHP-1 cells were pre-treated with one or 2 µM peptide solutions in fresh RPMI for 24 h. Subsequently peptides were removed by washing three times with PBS. An mCherry-expressing S. aureus strain, prepared as described in Section 5.2, was used. This strain is efficiently internalized by macrophages ([Cuypers et al., 2024]). Bacteria were added to dTHP-1 cells at a multiplicity of infection (MOI) of 2:1 and incubated for 45 min at 37 °C with 5% CO2 for phagocytosis. Extracellular bacteria were then removed by washing the wells three times with 60 µL PBS, followed by a final wash with 200 µL PBS.dTHP-1 cells were either lysed immediately to quantify the number of intracellular bacteria, after phagocytosis (T = 0 h) or were incubated for 24 h (T = 24 h) in RPMI supplemented with 10 μg/mL gentamicin (Sigma-Aldrich) to inhibit extracellular bacterial growth (in both peptide-treated and control dTHP-1 cells). Internalized bacteria were quantified after lysing the cells with 0.025% Triton X-100 in PBS for 15 min. Lysates were serially diluted (both at 0 h and 24 h) and plated onto BA for CFU enumeration to assess intracellular bacterial survival.

[6] = test system: Acinetobacter baumannii RUH875; assay type: cell-based; conditions: 18 h, 37 °C, median of three independent experiments (Table 1)
Procedure: as §1

[7] = test system: HaCaT keratinocytes; test: In vitro scratch wound assay; assay type: cell-based, human; conditions: 1 µM peptide (TGF-β 20 ng/mL); for Percentage of wound closure: 60 h (legend: 64 h)
Procedure: Cell migration following injury was assessed using an in vitro scratch assay with the IncuCyte wound maker tool (Sartorius). HaCaT keratinocytes were seeded in 96-well ImageLock plates (Sartorius) at 3 × 10^5 cells/well (100 µL) in DMEM supplemented with 10% FBS and incubated at 37 °C, 5% CO2 for 48 h, with medium change at 24 h, until confluence. Uniform scratches were introduced using the wound maker tool according to the manufacturer’s instructions. After wounding, wells were washed twice with 100 µL PBS to remove cell debris. Cells were then treated with 1 µM peptides in serum-free DMEM, to focus specifically on cell migration from the wound edges. The absence of serum minimizes interference with peptide activity. Transforming growth factor-beta (TGF-β; human; 20 ng/mL; Sigma-Aldrich) and 5% dimethyl sulfoxide (DMSO; Sigma-Aldrich) were used as positive and negative controls, respectively. Additional controls included serum-free DMEM (no-treatment control) and 50% (v/v) acetonitrile in Milli-Q water as solvent control. Wound closure was monitored using the IncuCyte S3 live-cell imaging system (Sartorius) with bright-field microscopy. Images were captured every 6 h for up to 60 h. Image analysis was performed using ImageJ software (version 1.53t, NIH, USA) with the “Wound Healing” plugin, as described by Suarez Arnedo et al. ([Suarez-Arnedo et al., 2020]). Quantitative parameters included wound width (µm), percent wound closure, and migration rate (µm/hour).

[8] = test system: HaCaT human keratinocytes; test: Cytotoxicity (WST-1 and LDH); assay type: cell-based
Procedure: (§2) Cells (5 × 10^5 cells/mL) were seeded in 96-well plates (100 μL/well; Thermo Scientific) and allowed to adhere for 24 h. After adhesion, monolayers were exposed to two-fold serial dilutions of the tetrameric and reference peptides (final concentrations: 60–0.05 µM) in fresh DMEM containing 2% (v/v) FBS, and incubated for 24 h at 37 °C in a humidified 5% CO2 atmosphere. Cell viability was assessed using the water-soluble tetrazolium salt (WST-1; Roche) assay, and membrane integrity was measured using the lactate dehydrogenase (LDH) release assay (Abcam), following manufacturer instructions. Absorbance was measured using the Synergy H1 microplate reader (Biotek). Results are expressed as percentages relative to untreated control (for WST-1) and positive lysis control (for LDH) and all experiments were performed in triplicate.

[9] = test system: human skin fibroblast cells (BJ); test: Cytotoxicity (WST-1 and LDH); assay type: cell-based
Procedure: as §2

[10] = 24 h exposure, DMEM 2% FBS, concentration causing >30% membrane permeation, triplicate
[11] = 24 h exposure, WST-1, concentration causing <70% metabolic activity, triplicate

N=C(N)NCCC[C@H](NC(=O)[C@H](Cc1c[nH]c2ccccc12)NC(=O)[C@H](CCC(N)=O)NC(=O)[C@H](Cc1c[nH]c2ccccc12)NC(=O)[C@H](CCCNC(=N)N)NC(=O)[C@@H](N)CCCNC(=N)N)C(=O)NCC(CNC(=O)[C@H](CCCNC(=N)N)NC(=O)[C@H](Cc1c[nH]c2ccccc12)NC(=O)[C@H](CCC(N)=O)NC(=O)[C@H](Cc1c[nH]c2ccccc12)NC(=O)[C@H](CCCNC(=N)N)NC(=O)[C@@H](N)CCCNC(=N)N)OCC(=O)NCCCCCC(=O)N[C@@H](CSSC[C@H](NC(=O)CCCCCNC(=O)COC(CNC(=O)[C@H](CCCNC(=N)N)NC(=O)[C@H](Cc1c[nH]c2ccccc12)NC(=O)[C@H](CCC(N)=O)NC(=O)[C@H](Cc1c[nH]c2ccccc12)NC(=O)[C@H](CCCNC(=N)N)NC(=O)[C@@H](N)CCCNC(=N)N)CNC(=O)[C@H](CCCNC(=N)N)NC(=O)[C@H](Cc1c[nH]c2ccccc12)NC(=O)[C@H](CCC(N)=O)NC(=O)[C@H](Cc1c[nH]c2ccccc12)NC(=O)[C@H](CCCNC(=N)N)NC(=O)[C@@H](N)CCCNC(=N)N)C(N)=O)C(N)=O (some centres unmarked) [LBT-2]
LC99.9 ([1]; JAR060131, 18 h): 0.47 µM

[H]/N=C(\N/C(=N/[H])NCCCCCCNC(=N)NC(=N)Nc1ccc(Cl)cc1)Nc1ccc(Cl)cc1 [Chlorhexidine, reference compound]
Reduction of bacterial burden (CFU counts) [2]: significantly reduced bacterial burden

CC[C@H](C)[C@H](NC(=O)[C@H](CCCCN)NC(=O)[C@H](CCC(=O)O)NC(=O)[C@H](CCCCN)NC(=O)[C@H](CO)NC(=O)[C@H](CCCCN)NC(=O)[C@H](CCCNC(=N)N)NC(=O)[C@H](Cc1ccccc1)NC(=O)[C@H](Cc1ccccc1)NC(=O)[C@H](CC(=O)O)NC(=O)CNC(=O)[C@H](CC(C)C)NC(=O)[C@@H](N)CC(C)C)C(=O)NCC(=O)N[C@@H](CCCCN)C(=O)N[C@@H](CCC(=O)O)C(=O)N[C@@H](Cc1ccccc1)C(=O)N[C@@H](CCCCN)C(=O)N[C@@H](CCCNC(=N)N)C(=O)N[C@H](C(=O)N[C@H](C(=O)N[C@@H](CCC(N)=O)C(=O)N[C@@H](CCCNC(=N)N)C(=O)N[C@H](C(=O)N[C@@H](CCCCN)C(=O)N[C@@H](CC(=O)O)C(=O)N[C@@H](Cc1ccccc1)C(=O)N[C@@H](CC(C)C)C(=O)N[C@@H](CCCNC(=N)N)C(=O)N[C@@H](CC(N)=O)C(=O)N[C@@H](CC(C)C)C(=O)N[C@H](C(=O)N1CCC[C@H]1C(=O)N[C@@H](CCCNC(=N)N)C(=O)N[C@H](C(=O)N[C@@H](CCC(=O)O)C(=O)N[C@@H](CO)C(=O)O)[C@@H](C)O)C(C)C)[C@@H](C)CC)C(C)C)[C@@H](C)CC [LL-37, reference compound]
Hemolysis at the highest concentration tested ([3]; 60 µM, human erythrocytes): non-hemolytic | Hemolytic concentration (HC) < 30% ([3]; 1% human erythrocytes in PBS, 37 °C, absorbance 540 nm, 30% lysis threshold, peptides up to 60 µM, triplicate, single donor): >60 µM | TNFα induction by peptide alone [4]: minimal but significant | Macrophage reduction of intracellular S. aureus burden 24 h post-phagocytosis [5]: significantly enhanced | LC99.9 ([1]; 50% pooled human plasma in RPMI, 18 h, 37 °C, median of three independent experiments): 60 µM | LC99.9 ([1]; RPMI, 18 h, 37 °C, 1 × 10^6 CFU/mL, median of three independent experiments): 1.88 µM | LC99.9 ([6]; 50% pooled human plasma): > 120 µM and >120 µM | LC99.9 ([6]; RPMI): >120 µM | Percentage of wound closure ([7]; versus no treatment): significant wound closure | Cytotoxicity, LDH leakage [8, 10]: 15 µM | Cytotoxicity, Metabolic activity [8, 11]: 15 µM | Cytotoxicity threshold (tolerance), WST-1 and LDH ([8]; keratinocytes, 24 h): 15 µM | Cytotoxicity, LDH leakage [9, 10]: 7.5 µM | Cytotoxicity, Metabolic activity [9, 11]: 15 µM | Cytotoxicity threshold (tolerance), WST-1 and LDH ([9]; fibroblasts, 24 h): 7.5 to 15 µM

TGF-β
Percentage of wound closure ([7]; versus no treatment): near-complete wound closure | Wound width reduction ([7]; serum-free DMEM, versus untreated control): highest wound width reduction | Rate of cell migration ([7]; versus no treatment): faster wound closure
